Measurements taken from publication PMC3280214, “Structure Based Discovery of Small Molecules to Regulate the Activity of Human Insulin Degrading Enzyme” (PLoS ONE, 2012).

Experiments:
HeLa cells [1] = assay: Cell-based degradation of FITC-insulin; parameters: species or system human; conditions: for increase in magnitude of IDE activity for insulin degradation in HeLa cells: HeLa cells pre-loaded with FITC-insulin, 20 µM; for permeability through cell membrane: inferred from HeLa cell assay
Experimental: It was shown that HeLa cells express insulin receptor, and thus take FITC-labeled insulin inside and degrade it intracellularly, [21], [22]. First, FITC-insulin was added to the culture that contains HeLa cells and incubated for 2 hours in order to allow for sufficient uptake of FITC-insulin by HeLa cells. In order to ensure that FITC-labeled insulin is translocating into the cells through insulin uptake receptor, and that cytoplasmic IDE can degrade FITC- insulin, we conducted live cell imaging of HeLa cells, and recorded fluorescence. At various time points compounds, D3, D6, and D10, were added; and cells were washed with Hank's balanced salt solution (HBSS), the these cells were collected and lysed with appropriate buffer. After centrifugation, cell free extracts were used to measure the change in fluorescence by luminometer. […] Compound D10 increased in vivo proteolysis of FITC- insulin by about 32 fold with HeLa cells compared to control group (Fig. 3A). […] These findings are consistent with the data obtained by in vitro assay, showing enhanced degradation of insulin by D10 and D3 (Fig. 3A). […] This figure further verifies the significant increase in fluorescence observed in the presence of compound D10, which is consistent with our in vitro assay (Fig. 3B).
Cells were cultured at 37°C under a humidified atmosphere of 5% CO2 in medium supplemented with 10% fetal bovine serum. Then, FITC-insulin was added to cell medium and incubated for 2 h at 37°C. Next, compounds were loaded at different time intervals separately. Cells were washed with Hank's balanced salt solution (HBSS), then disrupted with 1× passive lysis buffer. Fluorescence was measured with a luminescence multi-label plate leader, and changes in fluorescence was imaged by fluorescence microscope at Burc Laboratory (Istanbul, Turkey).

HeLa cells [2] = assay: MTT assay for cell viability; format: cell-based, human; conditions: 24 h; for cytotoxicity at high concentrations: 1 to 100 µM
Text: We characterized the activity of novel compounds in a cellular assay to establish whether there were any cytotoxic effects. We used an established MTT (3-(4,5-dimethylthiazolyl-2)-2, 5-diphenyltetrazolium bromide or thiazolyl blue) method using HELA cells to determine whether the small molecule affects cell viability. In this method, a purple formazan dye forms as a result of the cleavage of the yellow tetrazolium MTT within metabolically active cells. The resulting precipitate of the intracellular formazan can be dissolved in a detergent solution and quantified spectrophotometrically at 595 nm. We measured the cytotoxicity by incubating HELA cells in the presence of novel compounds at concentrations ranging from 1 to 100 µM for 24 h. Cell viability was measured using the MTT method after […] culture. The extent of cell death was expressed relative to a control containing DMSO. […] Therefore, as a next step we tested the effects of lead compounds on insulin catabolism using HeLa cells.
The cytotoxicity assay was performed using human cervical cancer HeLa cells. Cells were cultured at 37°C under a humidified atmosphere of 5% CO2 in medium supplemented with 10% fetal bovine serum and dispersed in replicate 96-well plates with 2.5×10^4 cells/well. Compounds were then added. After 24 hours exposure to the chemical compounds, the cell viability was determined by 3-[4,5-dimethylthiazol-2-yl]-2,5-diphenpyltetrazolium bromide (MTT) assay. The optical density (OD) of the wells was determined using ELISA plate reader at a test wavelength of 600 nm and a reference wavelength of 630 nm. Each measurement was carried out in triplicate.

Row | SMILES | increase in magnitude of IDE activity for insulin degradation in HeLa cells (HeLa cells [1]) [%] | permeability through cell membrane (HeLa cells [1]) | cytotoxicity at high concentrations (HeLa cells [2]) | cell viability (HeLa cells [2]; 7.5 µM) | cell viability (HeLa cells [2]; 100 µM) [%]
1 | COc1ccc(C2C(C(=O)Nc3ccccc3)=C(C)N=c3sc(=Cc4cn(C)nc4C)c(=O)n32)cc1 (centres unmarked) [Compound D3] | ~65 | permeable through cell membrane | did not demonstrate any toxicity |  | 
2 | Cc1nn(-c2ccccc2)c2nc(-c3cccc([N+](=O)[O-])c3)n3c4ccccc4nc3c2c1=O [Compound D10] | ~240 | permeable through cell membrane | did not demonstrate any toxicity |  | 
3 | Nc1c(C(=O)Nc2ccccc2F)c2ccccn2c1C(=O)c1ccc2c(c1)CCCC2 [Compound D4] |  |  |  | approximately 85% | 60
